According to US20120184537A1, “[1,4]-BENZODIAZEPINES AS VASOPRESSIN V2 RECEPTOR ANTAGONISTS” (SHIRE-MOVETIS N.V., priority 2009, published 2012):

Legend:
[1] = biological target: T1, human V1a receptors (Homo sapiens, UniProt P37288); assay: Human V1a agonist effect (intracellular calcium mobilization in transfected CHO cells); assay type: cell-based; design: expressed in transfected cells; host or cells: CHO cells; details: compound at 1 μM, control response to 1 μM AVP, Ca2+ fluorescence
Description: (§1) Intracellular calcium mobilization was measured in CHO cells transfected to express either human V1a receptors (supra), in analogy with the Measurement of intracellular Ca^2+ concentration as described in Tahara A., et al., (1998) Brit. J. Pharmacol., 125; 1463-1470; which is incorporated herein by reference.
(§2) The cells are suspended in DMEM buffer (Invitrogen) complemented with 0.1% fetal calf serum, then distributed in microplates at a density of 4.5×10^4 cells/well.
(§3) The fluorescent probe (Calcium4, Molecular Device) mixed with probenicid in HBSS buffer (Invitrogen) complemented with 20 mM Hepes (Invitrogen) (pH 7.4) is then added into each well and equilibrated with the cells for 60 min at 37° C. then 15 min at 22° C. Thereafter, the assay plates are positioned in a microplate reader (CellLux, PerkinElmer) which is used for the addition of the test compound, reference agonist or HBSS buffer (basal control), and for the measurements of changes in fluorescence intensity which varies proportionally to the free cytosolic Ca^2+ ion concentration. For stimulated control measurements, AVP at 1 μM is added in separate assay wells.
The results are expressed as a percent of the control response to 1 μM AVP.

[2] = biological target: T2, human V2 receptor (Homo sapiens, UniProt P30518); assay: Human V2 agonist effect (cAMP accumulation in transfected CHO cells); assay type: cell-based; design: expressed in transfected cells; host or cells: CHO cells; details: compound at 1 μM, control response to 1 nM AVP
Description: (§4) The accumulation of cAMP was measured in transfected CHO cells (supra) expressing the human V2 receptor in analogy with the cAMP Assay procedures described in Cotte N., et al., (1998) J. Biol. Chem., 273; 29462-29468; which is incorporated herein by reference.
The cells are suspended in HBSS buffer (Invitrogen) complemented with 20 mM HEPES 20 (pH 7.4), 0.01% BSA and 500 μM IBMX, then distributed in microplates at a density of 3×10^3 cells/well and incubated for 30 min at 22° C. in the absence (control) or presence of the test compound or the reference agonist. For stimulated control measurement, separate assay wells contain AVP at a final concentration of 1 nM. Following incubation, the cells are lysed and the fluorescence acceptor (D2-labeled cAMP) and fluorescence donor (anti-cAMP antibody labeled with europium cryptate) are added. After 60 min at 22° C., the fluorescence transfer is measured at λex=337 nm and λem=620 and 665 nm using a microplate reader (Rubystar, BMG). The cAMP concentration is determined by dividing the signal measured at 665 nm by that measured at 620 nm (ratio).
The results are expressed as a percent of the control response to 1 nM AVP.

[3] = biological target: T1, human V1a receptors; assay: Human V1a antagonist effect (AVP-induced calcium mobilization in transfected CHO cells); assay type: cell-based; design: expressed in transfected cells; host or cells: CHO cells; details: inhibition of response to 10 nM AVP, Ca2+ fluorescence, read-out: V1a antagonism IC50
Description: as §1, §2
as §3, with “compound” for “compound, reference agonist”, “then 5 min later 10 nM AVP or HBSS buffer (control),” for “(basal control),”, “Ca2+” for “Ca^2+”, “concentration.” for “concentration. For stimulated control measurements, AVP at 1 μM is added in separate assay wells.”
The standard reference antagonist is [d(CH2)^51,Tyr(Me)^2,Arg^8]-AVP, which is tested in each experiment at several concentrations to generate a concentration-response curve from which its IC50 value is calculated.

[4] = biological target: T2, human V2 receptor; assay: Human V2 antagonist effect (AVP-induced cAMP accumulation in transfected CHO cells); assay type: cell-based; design: expressed in transfected cells; host or cells: CHO cells; details: inhibition of control response to 0.03 nM AVP, read-out: V2 antagonism IC50
Description: as §4
The cells are suspended in HBSS buffer (Invitrogen) complemented with 20 mM HEPES (pH 7.4), 0.01% and 500 μM IBMX, then distributed in microplates at a density of 3×10^3 cells/well and preincubated for 5 min at 22° C. in the absence (control) or presence of the test compound or the reference antagonist. Thereafter, the reference agonist AVP is added at a final concentration of 0.03 nM.
Following 30 min incubation at 22° C., the cells are lysed and the fluorescence acceptor (D2-labeled cAMP) and fluorescence donor (anti-cAMP antibody labeled with europium cryptate) are added. After 60 min at 22° C., the fluorescence transfer is measured at λex=337 nm and λem=620 and 665 nm using a microplate reader (Rubystar, BMG). The cAMP concentration is determined by dividing the signal measured at 665 nm by that measured at 620 nm (ratio). The results are expressed as a percent inhibition of the control response to 0.03 nM AVP.
The standard reference antagonist is [adamantaneacetyl^1,O-Et-D-Tyr^2,Val^4,aminobutyryl^6]-AVP, which is tested in each experiment at several concentrations to generate a concentration-response curve from which its IC50 value is calculated.

[5] = biological target: T1, human V1a receptors; assay: Human vasopressin V1a receptor binding assay ([3H]AVP displacement); design: expressed in transfected cells; host or cells: CHO cells (membrane homogenates); details: displacement of 0.3 nM [3H]AVP, CHO cell membranes, 22° C.
Description: (§5) The in vitro inhibition of AVP receptor binding was assessed by using recombinant human V1a or V2 receptor preparations derived from the membranes of transfected CHO cells. Compounds were assessed for their ability to displace [^3H]-arginine vasopressin from plasma membrane preparations of said CHO transfected cells in analogy with the Binding Assay procedures described in Cotte N., et al., (1998) J. Biol. Chem., 273; 29462-29468 and Tahara A., et al., (1998) Brit. J. Pharmacol., 125; 1463-1470; which are incorporated herein by reference.
(§6) Cell membrane homogenates (40 μg protein) are incubated for min at 22° C. with 0.3 nM [^3H]AVP in the absence or presence of the test compound in a buffer containing 50 mM Tris-HCl (pH 7.4), 5 mM MgCl2 and 0.1% BSA. Nonspecific binding is determined in the presence of 1 μM AVP. Following incubation, the samples are filtered rapidly under vacuum through glass fiber filters (GF/B, Packard) presoaked with 0.3% PEI and rinsed three times with ice-cold 50 mM Tris-HCl using a 96-sample cell harvester (Unifilter, Packard). The filters are dried then counted for radioactivity in a scintillation counter (Topcount, Packard) using a scintillation cocktail (Microscint 0, Packard).
(§7) The standard reference compound is AVP (V2 receptor binding assay) or [d(CH2)51,Tyr(Me)2]-AVP (V1a receptor binding assay), which is tested in each experiment at several concentrations to obtain a competition curve from which its IC50 is calculated.

[6] = biological target: T2, human V2 receptor; assay: Human vasopressin V2 receptor binding assay ([3H]AVP displacement); design: expressed in transfected cells; host or cells: CHO cells (membrane homogenates); details: displacement of 0.3 nM [3H]AVP, CHO cell membranes, 120 min at 22° C.
Description: as §5
as §6, with “membrane homogenates (16 μg protein)” for “membrane homogenates (40 μg protein)”, “incubated for 120 min at” for “incubated for min at”
as §7

T1 sequence (P37288 whole entry): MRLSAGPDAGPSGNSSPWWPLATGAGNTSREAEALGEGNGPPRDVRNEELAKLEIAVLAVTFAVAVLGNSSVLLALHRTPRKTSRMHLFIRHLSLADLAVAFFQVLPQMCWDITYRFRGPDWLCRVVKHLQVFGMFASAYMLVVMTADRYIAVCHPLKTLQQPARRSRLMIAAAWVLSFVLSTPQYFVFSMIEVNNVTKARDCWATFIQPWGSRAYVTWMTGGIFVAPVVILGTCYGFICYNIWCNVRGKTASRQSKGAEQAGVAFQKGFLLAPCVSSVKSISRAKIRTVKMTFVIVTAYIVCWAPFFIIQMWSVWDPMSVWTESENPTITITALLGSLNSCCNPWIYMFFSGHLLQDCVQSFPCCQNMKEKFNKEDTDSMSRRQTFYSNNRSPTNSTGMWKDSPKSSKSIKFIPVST

Row | Compound | V1a agonist effect, % of control agonist response (AVP) [1] | V2 agonist effect, % of control agonist response (AVP) [2] | IC50 [3] | IC50 [4] | IC50 [5] | IC50 [6]
1 | O=C(Nc1ccc(C(=O)N2C[C@@H](CO)NCc3ccccc32)c(Cl)c1)c1ccccc1-c1ccccc1 [Compound 14, (S)—N-(3-chloro-4-(3-(hydroxymethyl)-2,3,4,5-tetrahydro-1H-benzo[e][1,4]diazepine-1-carbonyl)phenyl)biphenyl-2-carboxamide] | −1% | −1% | > 100000 nM | 57 nM | 3800 nM | 5.8 nM
2 | O=C1CN2Cc3ccccc3N(C(=O)c3ccc(NC(=O)c4ccccc4-c4ccccc4)cc3Cl)C[C@H]2CO1 [Compound 16, (S)—N-(3-chloro-4-(3-oxo-3,4,6,11,12,12a-hexahydro-1H-benzo[e][1,4]oxazino[4,3-a][1,4]diazepine-11-carbonyl)phenyl)biphenyl-2-carboxamide] | −1% | 0% | > 100000 nM | 13 nM | 240 nM | 1.9 nM
3 | O=C(O)CN1Cc2ccccc2N(C(=O)c2ccc(NC(=O)c3ccccc3-c3ccccc3)cc2Cl)C[C@H]1CO [Compound 17, (S)-2-(1-(4-biphenyl-2-ylcarboxamido-2-chlorobenzoyl)-3-(hydroxymethyl)-2,3-dihydro-1H-benzo[e][1,4]diazepin-4(5H)-yl)acetic acid] | −1% | −1% | – | 2800 nM | – | 120 nM
4 | O=C(Nc1ccc(C(=O)N2C[C@H]3COC(O)CN3Cc3ccccc32)c(Cl)c1)c1ccccc1-c1ccccc1 (stereo partly drawn) [Compound 19, (S)—N-(3-chloro-4-(3-hydroxy-3,4,6,11,12,12a-hexahydro-1H-benzo[e][1,4]oxazino[4,3-a][1,4]diazepine-11-carbonyl)phenyl)biphenyl-2-carboxamide] | −1% | 0% | 20000 nM | 11 nM | 210 nM | 2.5 nM
5 | N-[3-chloro-4-({13-oxa-1,9-diazatricyclo[9.4.0.0^{3,8}]pentadeca-1,3,5,7-tetraen-9-yl}carbonyl)phenyl]-2-phenylbenzamide [Compound 21] | – | −1.5% | > 100000 nM | 410 nM | 780 nM | 19 nM
